Experimental data taken from patent publication US8871735B2, “Methods and compositions for providing cardiac protection” (University of Medicine and Dentistry of New Jersey, priority 2008, dated 2014).

Experiments:
[1] = tested on: mice after coronary occlusion; experiment: Coronary occlusion (post-MI) survival and echocardiography; type: in vivo, mouse
Protocol: Ara-Ade (50 mg/kg/day) was chronically infused with mini-osmotic pumps implanted subcutaneously 2-3 days before the coronary occlusion. […] (b) Echocardiography was performed at 16 days after coronary occlusion.

cardiac myocytes = experiment: ISO-stimulated cAMP accumulation in cultured cardiac myocytes; type: cell-based, mouse; details: 10 μM compound
[2] = tested on: C57Bl/6 mice, chronic ISO infusion; experiment: Chronic ISO infusion heart failure model; type: in vivo, mouse
Source text: ISO with or without AC5 inhibitors were chronically infused with osmotic mini-pump implanted subcutaneously at indicated doses for 1 week in c57Bl/6 mice. Mice were then subjected to echocardiography (a) and the hearts were removed and subjected to pathological examinations such as myocardial apoptosis (b) and fibrosis (c). n=4-8.
In C57Bl/6 mice, ISO with or without AC5 inhibitors or metoprolol were chronically infused with an osmotic mini-pump at the indicated doses for 1 week. Mice were then subjected to echocardiography (a) and heart tissue were subjected to a myocardial apoptosis assay (b). *, p<0.01 vs vehicle. #, p<0.05 vs vehicle. .dagger., p<0.01 vs ISO. .dagger-dbl., p<0.05 vs ISO. n=4-15. […] Comparisons between multiple groups were made using ANOVA with post-hoc tests.
Tenofovir diphosphate (PMPA-PP), zidovudine monophosphate (MP), zidovudine diphosphate (PP), zidovudine triphosphate (TP), famciclovir penciclovir and valaciclovir were purchased from Moravek. Formycin A (FMA) and Formycin B (FMB) were purchased from Berry and Associates. All other reagents were from Sigma unless specified. Long-term infusion of isoproterenol (Sigma, St. Louis, Mo.) was performed for 7 days at a dose of 60 mg/kg/d with or without AC5 inhibitors by using a miniosmotic pump (ALZET model 2001, DURECT Corp, Cupertino, Calif.). Control mice received vehicle in pumps. Pumps were removed 24 hours before biochemical and physiological studies. Experiments were performed in 3- to 5-month-old male C57Bl/6, and in AC5Tg transgenic mice. This study was approved by the Animal Care and Use Committee at New Jersey Medical School.
Mice were anesthetized with 2.5% tribromoethanol (0.010 to 0.015 mL per gram of body weight) injected intraperitoneally, and echocardiography was performed with ultrasonography (ACUSON Sequoia C256, Siemens Medical Solutions, Malvern, Pa.). For acute injection of isoproterenol, forskolin and milrinon, a PE-10 catheter was inserted into the right jugular vein, and drugs were injected at the rate of 1 μl/s. cAMP accumulation assay in H9C2 cells, a cardiac myoblast cell line, was examined as previously described.

Nc1ncnc2c1ncn2[C@@H]1O[C@H](CO)[C@@H](O)[C@@H]1O [Ara-Ade, 9-β-D-arabinofuranosyladenine]
LVEF after MI ([1]; 16 days after coronary occlusion): prevented decrease in LVEF | survival rate after coronary occlusion ([1]; Ara-Ade 50 mg/kg/day from 2-3 days before occlusion, chi-square at 16 days): significant increase in survival rate | decrease in ISO-induced cAMP production / accumulation in cultured cardiac myocytes (cardiac myocytes): 20% | ISO-induced decrease in LVEF (and FS) ([2]; ISO 60 mg/kg/d 7 days, Ara-Ade 20 and 100 mg/kg/day, 2′5′ ddAdo 20 mg/kg/day): rescued LVEF and FS reduction | ISO-induced cardiac fibrosis ([2]; chronic ISO infusion): significantly inhibited | ISO-induced myocardial apoptosis in vivo ([2]; chronic ISO infusion): significantly inhibited | ISO-induced wall thickening (DESP, DPW) ([2]; chronic ISO infusion): neither Ara-Ade nor 2′5′ ddAdo inhibited | LVW/BW and myocyte cross sectional area ([2]; chronic ISO infusion): increased | survival rate during 1-week chronic ISO ([2]; vs vehicle): higher
